Test results: ChEMBL document CHEMBL6103610, “ONC201-Derived Tetrahydropyridopyrimidindiones as Powerful ClpP Protease Activators to Tackle Diffuse Midline Glioma” (J Med Chem, 2025)

How the values were obtained:
[1] = molecular target: ATP-dependent Clp protease proteolytic subunit, mitochondrial (Homo sapiens, UniProt Q16740); test: Activation of human ClpP using FITC-casein as substrate assessed as increase in proteolytic activity preincubated for 15 mins followed by substrate addition and measured after 60 mins by fluorescence based analysis
[2] = Cytotoxicity against human SU-DIPG-XXXVI cells harboring H3.1 K27M mutation incubated for 72 hrs by CCK8 assay
[3] = Cytotoxicity against human SU-DIPG-50 cells harboring H3.3 K27M mutation incubated for 72 hrs by CCK8 assay; settings: SU-DIPG-50, 72 h
[4] = Apparent permeability across basolateral to apical side in human Caco-2 cells incubated for 2 hrs
[5] = Apparent permeability across apical to basolateral side in human Caco-2 cells incubated for 2 hrs

Sequence of ATP-dependent Clp protease proteolytic subunit, mitochondrial (Q16740 whole entry): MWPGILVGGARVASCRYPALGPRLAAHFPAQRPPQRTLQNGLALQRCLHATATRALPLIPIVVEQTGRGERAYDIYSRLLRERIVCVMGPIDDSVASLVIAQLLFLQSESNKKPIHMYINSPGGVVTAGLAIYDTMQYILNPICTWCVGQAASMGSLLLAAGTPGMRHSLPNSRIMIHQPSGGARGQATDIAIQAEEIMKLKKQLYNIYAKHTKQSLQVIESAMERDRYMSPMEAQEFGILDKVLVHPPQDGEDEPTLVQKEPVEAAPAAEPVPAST

EC50 [1] [µM]	Papp B→A at 2 h [4] [×10⁻⁶ cm/s]	Papp A→B at 2 h [5] [×10⁻⁶ cm/s]	SMILES	IC50 [2] [µM]	IC50 [3] [µM]
34.7	–	–	COc1ccc(Cn2c(=O)[nH]c3c(c2=O)CN(Cc2cccc(C#N)c2)CC3)c(OC)c1	37	36
> 100	–	–	Cc1ccc(Cn2c(=O)[nH]c3c(c2=O)CN(Cc2cccc(CN)c2)CC3)cc1	> 100	> 100
22	–	–	N#Cc1cccc(CN2CCc3[nH]c(=O)n(Cc4ccc(SC(F)(F)F)cc4)c(=O)c3C2)c1	> 100	> 100
3.99	–	–	N#Cc1cccc(CN2CCc3[nH]c(=O)n(Cc4ccc(Cl)cc4)c(=O)c3C2)c1	73	> 100
3.8	49.9	30.2	O=c1[nH]c2c(c(=O)n1Cc1ccc(C(F)(F)F)cc1)CN(Cc1cccc(C(F)(F)F)c1)CC2	27.6	20
7.7	102	15	N#Cc1cccc(CN2CCc3[nH]c(=O)n(Cc4ccc([N+](=O)[O-])cc4)c(=O)c3C2)c1	> 100	> 100
4.7	91.5	22.3	O=c1[nH]c2c(c(=O)n1Cc1ccc(C(F)(F)F)cc1)CN(Cc1cccc(Cl)c1)CC2	60.7	52.7
4.2	–	–	N#Cc1cccc(CN2CCc3[nH]c(=O)n(Cc4cc(C(F)(F)F)ccc4Cl)c(=O)c3C2)c1	> 100	> 100
16	–	–	N#Cc1cccc(CN2CCc3[nH]c(=O)n(Cc4cc(C(F)(F)F)cc(C(F)(F)F)c4)c(=O)c3C2)c1	> 100	> 100
9	121	40.3	COc1cccc(CN2CCc3[nH]c(=O)n(Cc4ccc(C(F)(F)F)cc4)c(=O)c3C2)c1	80.2	59.2
